Measurements published in ChEMBL document CHEMBL2449286, “Structure-activity data for a series of P-glycoprotein inhibitors (Supplementary Data to CHEMBL1142990)”.

Target: ATP-dependent translocase ABCB1 (Homo sapiens, UniProt P08183)
Sequence (P08183 whole entry): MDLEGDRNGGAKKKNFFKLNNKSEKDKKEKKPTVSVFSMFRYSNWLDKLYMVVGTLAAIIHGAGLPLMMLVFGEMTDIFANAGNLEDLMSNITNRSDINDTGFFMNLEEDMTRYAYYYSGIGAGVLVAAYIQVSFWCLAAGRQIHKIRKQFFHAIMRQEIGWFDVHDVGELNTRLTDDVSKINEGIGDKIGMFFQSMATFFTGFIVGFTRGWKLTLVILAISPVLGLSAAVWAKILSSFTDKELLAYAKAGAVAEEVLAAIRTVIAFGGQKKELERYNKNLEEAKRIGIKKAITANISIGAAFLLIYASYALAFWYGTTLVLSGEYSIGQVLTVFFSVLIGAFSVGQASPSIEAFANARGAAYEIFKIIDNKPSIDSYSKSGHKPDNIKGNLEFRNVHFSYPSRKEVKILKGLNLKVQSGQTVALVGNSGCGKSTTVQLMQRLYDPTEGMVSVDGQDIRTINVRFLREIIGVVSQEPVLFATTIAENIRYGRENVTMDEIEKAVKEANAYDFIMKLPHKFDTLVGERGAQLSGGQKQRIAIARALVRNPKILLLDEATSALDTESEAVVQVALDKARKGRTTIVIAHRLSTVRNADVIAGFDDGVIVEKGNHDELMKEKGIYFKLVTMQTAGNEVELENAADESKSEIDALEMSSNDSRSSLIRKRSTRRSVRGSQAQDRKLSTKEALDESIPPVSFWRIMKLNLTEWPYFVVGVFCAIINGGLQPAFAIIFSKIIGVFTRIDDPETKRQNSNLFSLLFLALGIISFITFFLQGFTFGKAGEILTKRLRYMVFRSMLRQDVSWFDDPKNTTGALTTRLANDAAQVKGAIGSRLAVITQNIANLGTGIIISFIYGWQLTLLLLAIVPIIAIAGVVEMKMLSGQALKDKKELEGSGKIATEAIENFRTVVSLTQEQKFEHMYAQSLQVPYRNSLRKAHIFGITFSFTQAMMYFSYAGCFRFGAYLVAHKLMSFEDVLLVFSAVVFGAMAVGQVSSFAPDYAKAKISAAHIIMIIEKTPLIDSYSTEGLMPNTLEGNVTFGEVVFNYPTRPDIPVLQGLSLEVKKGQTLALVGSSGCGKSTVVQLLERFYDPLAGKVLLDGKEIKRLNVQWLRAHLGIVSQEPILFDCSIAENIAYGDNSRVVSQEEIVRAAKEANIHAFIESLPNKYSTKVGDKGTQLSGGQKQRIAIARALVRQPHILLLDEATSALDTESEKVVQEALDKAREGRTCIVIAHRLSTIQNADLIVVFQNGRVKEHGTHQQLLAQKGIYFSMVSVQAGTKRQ

Row | Structure (SMILES) | EC50 [µM]
1 | CC(C)[C@@H](CCl)N(C)[C@@H]1C2C=C(C#N)C=CC2OC(C)(C)[C@H]1O (some centres not stated) | 2.24
2 | CNC1c2cc(C#N)ccc2OC(C)(C)C1O (configuration not stated) | 776
3 | CC1(C)Oc2ccc(C#N)cc2C(NCc2ccccc2)C1O (configuration not stated) | 75.9
4 | CN[C@@H]1c2cc(C#N)ccc2OC(C)(C)[C@H]1O | 1700
5 | CC1(C)Oc2ccc(C#N)cc2[C@@H](NCc2ccccc2)[C@@H]1O | 58.9
6 | CC(C)[C@@H](N[C@@H]1c2cc(C#N)ccc2OC(C)(C)[C@H]1O)C(=O)OC(C)(C)C | 4.68
7 | CC(NC1c2cc(C#N)ccc2OC(C)(C)C1O)C(=O)OC(C)(C)C (configuration not stated) | 29.5
8 | C[C@H](N[C@H]1c2cc(C#N)ccc2OC(C)(C)[C@@H]1O)C(=O)OC(C)(C)C | 14.5
9 | C[C@@H](C(=O)OC(C)(C)C)N(C)[C@H]1c2cc(C#N)ccc2OC(C)(C)[C@@H]1O | 3.72
10 | C[C@@H](C(=O)OC(C)(C)C)N(C)[C@@H]1c2cc(C#N)ccc2OC(C)(C)[C@H]1O | 3.98
11 | CC(C)[C@@H]1N[C@@H]2c3cc(C#N)ccc3OC(C)(C)[C@H]2OC1=O | 15.5
12 | CC(C)[C@@H]1N[C@H]2c3cc(C#N)ccc3OC(C)(C)[C@@H]2OC1=O | 58.9
13 | CC(C)[C@H]1N[C@H]2c3cc(C#N)ccc3OC(C)(C)[C@@H]2OC1=O | 9.55
14 | C[C@@H]1N[C@H]2c3cc(C#N)ccc3OC(C)(C)[C@@H]2OC1=O | 77.6
15 | C[C@H]1C(=O)O[C@@H]2[C@H](c3cc(C#N)ccc3OC2(C)C)N1C | 28.8
16 | C[C@@H]1N[C@@H]2c3cc(C#N)ccc3OC(C)(C)[C@H]2OC1=O | 1230
17 | C[C@H]1C(=O)O[C@H]2[C@@H](c3cc(C#N)ccc3OC2(C)C)N1C | 47.9
18 | CC(C)[C@H]1C(=O)O[C@H]2[C@@H](c3cc(C#N)ccc3OC2(C)C)N1C | 47.9
19 | CC(C)[C@@H]1C(=O)O[C@H]2[C@@H](c3cc(C#N)ccc3OC2(C)C)N1C | 79.4

Row | Structure (SMILES) | EC50 [µM]
20 | CC(C)[C@@H]1C(=O)O[C@@H]2[C@H](c3cc(C#N)ccc3OC2(C)C)N1C | 27.5
21 | CC(C)[C@H]1C(=O)O[C@@H]2[C@H](c3cc(C#N)ccc3OC2(C)C)N1C | 16.6
22 | CC1(C)Oc2ccc(C#N)cc2[C@@H]2NC(Cc3ccccc3)C(=O)O[C@H]21 (some centres not stated) | 257
23 | CC(C)[C@@H](CO)N[C@H]1c2cc(C#N)ccc2OC(C)(C)[C@@H]1O | 102
24 | CC(C)[C@@H](CO)N[C@@H]1c2cc(C#N)ccc2OC(C)(C)[C@H]1O | 53.7
25 | CC(C)[C@@H](CO)N(C)[C@@H]1c2cc(C#N)ccc2OC(C)(C)[C@H]1O | 5.5
26 | CC(C)C(CO)N(C)[C@H]1c2cc(C#N)ccc2OC(C)(C)[C@@H]1O (some centres not stated) | 6.92
27 | CC(C)[C@@H](CCl)N(C)[C@@H]1c2cc(C#N)ccc2OC(C)(C)[C@H]1O | 35.5
28 | CC(C)[C@@H](CCl)N(C)[C@H]1c2cc(C#N)ccc2OC(C)(C)[C@@H]1O | 44.7
29 | CC(C)[C@H](N[C@@H]1c2cc(C#N)ccc2OC(C)(C)[C@H]1O)C(=O)O | 4.79
30 | C[C@H](N[C@@H]1c2cc(C#N)ccc2OC(C)(C)[C@H]1O)C(=O)OC(C)(C)C | 45.7
31 | CCC(=O)c1ccccc1OC[C@H](O)CN1CCCCC1 | 14.5
32 | CC(=O)c1ccccc1OC[C@H](O)CN1CCCCC1 | 31.6
33 | CCC(=O)c1ccccc1OC[C@H](O)CN1CCOCC1 | 209
34 | CC(=O)c1ccccc1OC[C@H](O)CN1CCOCC1 | 67.6
35 | O=C(CCc1ccccc1)c1ccccc1OC[C@H](O)CN1CCC(O)(c2ccccc2)CC1 | 0.0575
36 | CCCNC[C@@H](O)c1oc2ccccc2c1CC | 11.5
37 | CN[C@H]1c2cc(C#N)ccc2OC(C)(C)[C@@H]1O | 309
38 | CC1(C)Oc2ccc(C#N)cc2[C@H](NCc2ccccc2)[C@H]1O | 35.5

Further lines, results first:

Row | EC50 [µM] | Structure (SMILES)
39 | 0.257 | O=C(CCc1ccccc1)c1ccccc1OC[C@H](O)CN1CCC(Cc2ccccc2)CC1
40 | 1.7 | O[C@H](COc1ccccc1[C@@H](O)CCc1ccccc1)CN1CCCCC1
41 | 0.871 | O[C@@H](COc1ccccc1[C@@H](O)CCc1ccccc1)CN1CCCCC1
42 | 1.51 | O[C@H](COc1ccccc1[C@H](O)CCc1ccccc1)CN1CCCCC1
43 | 0.851 | O[C@@H](COc1ccccc1[C@H](O)CCc1ccccc1)CN1CCCCC1
44 | 0.646 | OC(CN1CCCCC1)C1Oc2ccccc2C1CCc1ccccc1 (configuration not stated)
45 | 0.158 | O=C(CCc1cccc2ccccc12)c1cccc(OCC(O)CN2CCN(c3ccc(F)cc3)CC2)c1 (configuration not stated)
46 | 0.0708 | Cc1ccccc1N1CCN(CC(O)COc2cccc(C(=O)CCc3cccc4ccccc34)c2)CC1 (configuration not stated)
47 | 1.35 | CC(C)[C@@H](N[C@H]1c2ccccc2OC(C)(C)[C@@H]1O)C(=O)OC(C)(C)C
48 | 0.955 | CC(C)[C@@H](C(=O)OC(C)(C)C)N(C)[C@@H]1c2cc(C#N)ccc2OC(C)(C)[C@H]1O
49 | 1.35 | CC(C)[C@@H](C(=O)OC(C)(C)C)N(C)[C@H]1c2cc(C#N)ccc2OC(C)(C)[C@@H]1O
50 | 1 | CC(C)[C@H](C(=O)OC(C)(C)C)N(C)[C@@H]1c2cc(C#N)ccc2OC(C)(C)[C@H]1O
51 | 0.776 | CC(C)(C)OC(=O)C(Cc1ccccc1)N[C@H]1c2cc(C#N)ccc2OC(C)(C)[C@@H]1O (some centres not stated)
52 | 0.55 | CC(C)(C)OC(=O)C(Cc1ccccc1)N[C@@H]1c2cc(C#N)ccc2OC(C)(C)[C@H]1O (some centres not stated)
53 | 2.69 | CC1(C)Oc2ccc(C#N)cc2[C@H]2N[C@@H](Cc3ccccc3)C(=O)O[C@@H]21
54 | 2.69 | CC(C)[C@H](N[C@H]1c2cc(C#N)ccc2OC(C)(C)[C@@H]1O)C(=O)O
55 | 0.912 | CCN(CC)C[C@@H](O)COc1ccccc1C(=O)CCc1ccccc1

Row | EC50 [µM] | Structure (SMILES)
56 | 0.603 | O=C(CCc1ccccc1)c1ccccc1OC[C@H](O)CN1CCCCC1
57 | 0.38 | CC(C)N(C[C@@H](O)COc1ccccc1C(=O)CCc1ccccc1)C(C)C
58 | 0.617 | O=C(CCc1ccccc1)c1ccccc1OC[C@H](O)CN1CCN(c2ccccc2)CC1
59 | 0.229 | COc1ccccc1N1CCN(C[C@@H](O)COc2ccccc2C(=O)CCc2ccccc2)CC1
60 | 0.676 | COc1cccc(N2CCN(C[C@@H](O)COc3ccccc3C(=O)CCc3ccccc3)CC2)c1
61 | 0.257 | COc1ccc(N2CCN(C[C@@H](O)COc3ccccc3C(=O)CCc3ccccc3)CC2)cc1
62 | 0.0269 | Cc1ccccc1N1CCN(C[C@@H](O)COc2ccccc2C(=O)CCc2ccccc2)CC1
63 | 0.661 | O=C(CCc1ccccc1)c1ccccc1OC[C@H](O)CN1CCN(Cc2ccccc2)CC1
64 | 0.0708 | O=C(CCc1ccccc1)c1ccccc1OC[C@H](O)CN1CCN(c2ccc(F)cc2)CC1
65 | 2.45 | CN(C)C[C@@H](O)COc1ccccc1C(=O)CCc1ccccc1
66 | 0.417 | CCCN(C)C[C@@H](O)COc1ccccc1C(=O)CCc1ccccc1
67 | 2.34 | CCN(CC)C[C@@H](O)COc1ccccc1C(=O)c1ccccc1
68 | 0.316 | O=C(/C=C/c1ccccc1)c1ccccc1OC[C@H](O)CN1CCCCC1
69 | 3.63 | O=C(CCc1ccccc1)c1ccccc1OC[C@H](O)CN1CCOCC1
70 | 0.977 | O=C(CCc1ccccc1)c1ccc(OC[C@H](O)CN2CCCCC2)cc1
71 | 0.174 | CO[C@H](CCc1ccccc1)c1ccccc1OC[C@H](O)CN1CCCCC1
72 | 0.178 | COc1ccccc1N1CCN(C[C@@H](O)c2oc3ccccc3c2CCc2ccccc2)CC1
